Measured values from patent publication US20240140986A1, “SYNTHETIC URSOLIC ACID DERIVATIVES AND METHODS OF USE THEREOF” (REATA PHARMACEUTICALS, INC., priority 2021, published 2024).
Where two headings read alike, the source gives them in different places.

Legend:
[1] = system: IFNγ-induced NO production in RAW 264.7 cells; test: Nitric Oxide Suppression Assay (IFNγ-induced NO, Griess nitrite readout); assay type: cell-based, mouse; settings: for IC50: Mus musculus, read-out: Avg NO IC50 (nM) (Mean ± SD); for Avg NO IC50 Relative to RTA402 (fold): Table 2, ratio to RTA402
Experimental: Tissue Culture: RAW 264.7, a mouse macrophage cell line, was obtained from American Type Culture Collection (Manassas VA) and maintained in the log phase of growth in Roswell Park Memorial Institute Medium 1640 (RPMI 1640) supplemented with 10% heat inactivated fetal bovine serum and 1% penicillin-streptomycin. Cells were cultured and maintained in a humidified incubator at 37° C. under 5% C02. Cells were sub-cultured every 2-4 days. All cell culture supplies were obtained from Life Technologies (Grand Island, NY) and VWR (Radnor, PA).
Nitric Oxide Suppression Assay. RAW 264.7 cells were plated 1 day in advance of experimental treatments at a concentration of 30,000 cells per well onto Falcon-96 well clear bottom plates (Corning, NY) in a total volume of 200 μL per well using RPMI 1640 supplemented with 0.5% fetal bovine serum and 1% penicillin-streptomycin. The next day, cells were pretreated with compounds serially diluted from 1000×stocks. All compounds were dissolved in dimethyl sulfoxide (DMSO) usually at 10 mM stock solutions. Compounds were subsequently diluted in DMSO and RPMI 1640. Each well received a final concentration of 0.1% DMSO. Cells were pretreated for 2 hours and incubation at 37° C., followed by treatment with 20 ng/mL of interferon gamma (R&D Systems, Minneapolis, MN) per well for 24 hours. The next day, a nitrite standard was serially diluted from 100 μM to 1.6 μM in RPMI 1640. Afterwards, 50 μL of cell culture supernatant was transferred from each well into a new Falcon-96 well clear bottom plate. Nitrite was measured as surrogate for nitric oxide using Promega's Griess Detection Kit #G2930 (Madison, WI) which involves the addition of 50 μL of the provided sulfanilamide solution to each well of the transferred cell culture supernatant and standards, followed by a 10-minute incubation at room temperature. Next, 50 μL of the provided N-1-napthylethylenediamine dihydrochloride (NED) solution was added to the sulfanilamide reaction and incubated for 10 minutes at room temperature in the dark. Afterwards, air bubbles were removed using ethanol vapor and absorbance was measured using a Spectramax M2e plate reader with a wavelength set to 525 nm. Viability was assessed using WST-1 cell proliferation reagent from Roche (Basel, Switzerland). After media was removed for the Nitric Oxide suppression assay, 15 μL of WST-1 reagent was added to each well of cells. Plates were briefly mixed on an orbital shaker and the cells were incubated at 37° C. for 30-90 minutes. Absorbance was measured using a Spectramax M2e plate reader with wavelengths set to 440 nm and 700 nm.
For the ability of compounds to suppress the increase in nitric oxide release caused by interferon gamma, the absolute amount of nitrite that was produced in each well was extrapolated from the nitrite standards using a linear regression fit. All values were then normalized to the DMSO-interferon gamma treated wells and plotted as percent nitric oxide. IC50 values were calculated using Excel and/or GraphPad Prism (San Diego, CA).

[2] = system: Nrf2 / ARE-dependent luciferase in AREc32 reporter cell line; test: AREc32 luciferase reporter activation (Nrf2 induction); assay type: cell-based, human; settings: for EC (2-fold): Homo sapiens, Arec32; for Relative Avg AREc32 EC2X Relative to RTA402 (fold): ratio to RTA402
Experimental: Effect on Ludferase Reporter Activation. Nrf2 is a transcription factor that binds to the antioxidant response element (ARE) sequence in the promoter regions of its target genes. AREc32 reporter cell line (derived from human breast carcinoma MCF7 cells) was obtained was from CXR Bioscience Limited (Dundee, UK) and cultured in DMEM (low glucose) supplemented with 10% FBS, 1% penicillin/streptomycin, and 0.8 mg/ml Geneticin (G418). This cell line is stably transfected with a luciferase reporter gene under the transcriptional control of eight copies of the rat GSTA2 ARE sequence (5′-GTGACAAAGCA-3′) (Wang et al., 2006). Expression of Firefly luciferase from this reporter plasmid is controlled by binding of Nrf2 to these ARE sequences. Measurement of ARE-dependent luciferase activity allows quantitative assessment of Nrf2 induction. AREc32 cell line has previously been used in studies characterizing different Nrf2 activators (Dinkova-Kostova & Wang, 2011; Roubalová et al., 2016; Roubalová et al, 2017; Wu et al, 2012).
The effect of several compounds disclosed herein on luciferase reporter activation was assessed in the AREc32 reporter cell line (see Table 10 and Table 11). This cell line is derived from human breast carcinoma MCF-7 cells and is stably transfected with a luciferase reporter gene under the transcriptional control of eight copies of the antioxidant response element from the rat Gsta2 gene, an Nrf2 target gene (Frilling et al., 1990). AREc32 cells were plated in black 96-well plates in 200 μL media at 20,000 cells per well. Twenty-four hours after plating, cells were treated with vehicle (DMSO) or test compounds at concentrations ranging from 0.03 to 1000 nM for nineteen hours. Media was removed and 100 μL of 1:1 mixture of the One-Glo Luciferase assay reagent and culture medium was added to each well. After incubation for 5 min at room temperature, the luminescence signal was measured on a PHERAstar plate reader. The EC2X value was determined using Excel and GraphPad Prism software. The fold increase in luminescence signal for cells treated with each concentration of compound relative to cells treated with vehicle was determined and a dose-response curve was generated. The dose-response curve was fit using nonlinear regression analysis and used to extrapolate the EC2X value. The EC2X value is defined as the concentration of test compound required to increase the luminescence signal 2-fold above levels in vehicle-treated samples.

[3] = RAW264.7, Table 2, RAW 264.7 cells, 2 h pretreatment, 20 ng/mL interferon gamma 24 h
[4] = Table 2, concentration increasing luminescence 2-fold above vehicle, 19 h treatment, read-out: Avg AREc32 EC2X (nM) (Mean ± SD)
[5] = RAW264.7, Table 3, ursolic acid derivatives
[6] = Table 3, ursolic acid derivatives, read-out: Avg ARE EC-2X (nM) (Mean ± SD)

Row | Compound | IC50 [1, 3] [nM] | Avg NO IC50 Relative to RTA402 (fold) [1] [fold] | EC (2-fold) [2, 4] [nM] | Relative Avg AREc32 EC2X Relative to RTA402 (fold) ([2]; Table 2) | IC50 [1, 5] [nM] | EC (2-fold) [2, 6] [nM]
1 | C[C@@H]1[C@H]2[C@H]3C(=O)C=C4[C@@]5(C)C=C(C#N)C(=O)C(C)(C)[C@@H]5CC[C@@]4(C)[C@]3(C)CC[C@@]2(c2nc(CF)no2)CC[C@H]1C [Compound T11] | 4.33 ± 1.45 | 2.10 ± 0.49 | 8.74 ± 2.61 | 0.685 ± 0.050 |  | 
2 | C[C@H]1[C@H](C)CCC23CC[C@@]4(C)[C@]5(C)CC[C@H]6C(C)(C)C(=O)C(C#N)=C[C@]6(C)C5=CC(=O)[C@]4(OC2)[C@H]13 [Compound T12] | 6.75 ± 2.19 | 3.29 ± 0.81 | 9.2 ± 2.7 | 0.724 ± 0.074 |  | 
3 | C[C@@H]1[C@H]2[C@H]3C(=O)C=C4[C@@]5(C)C=C(C#N)C(=O)C(C)(C)[C@@H]5CC[C@@]4(C)[C@]3(C)CC[C@@]2(CO)CC[C@H]1C [Compound T13] | 1.86 ± 0.32 | 1.25 ± 0.21 | 4.95 ± 0.63 | 0.358 ± 0.016 | 1.86 ± 0.32 | 4.95 ± 0.63
4 | C[C@@H]1[C@H]2[C@H]3C(=O)C=C4[C@@]5(C)C=C(C#N)C(=O)C(C)(C)[C@@H]5CC[C@@]4(C)[C@]3(C)CC[C@@]2(CN2CCC2=O)CC[C@H]1C [Compound T14] | 2.4 ± 1.2 | 1.27 ± 0.31 | 3.91 ± 0.52 | 0.349 ± 0.018 | 2.4 ± 1.2 | 3.91 ± 0.52
5 | C[C@@H]1[C@H]2[C@H]3C(=O)C=C4[C@@]5(C)C=C(C#N)C(=O)C(C)(C)[C@@H]5CC[C@@]4(C)[C@]3(C)CC[C@@]2(CN2CCCC2=O)CC[C@H]1C [Compound T15] | 4.2 ± 2.4 | 1.99 ± 0.20 | 5.21 ± 1.11 | 0.447 ± 0.085 | 4.2 ± 2.4 | 5.21 ± 1.11
6 | C[C@@H]1[C@H]2[C@H]3C(=O)C=C4[C@@]5(C)C=C(C#N)C(=O)C(C)(C)[C@@H]5CC[C@@]4(C)[C@]3(C)CC[C@@]2(N)CC[C@H]1C [Compound T16] | 15 ± 3.7 | 7.63 ± 2.99 | 20.5 ± 6 | 1.61 ± 0.084 | 15 ± 3.7 | 20.5 ± 6
7 | C[C@@H]1[C@H]2[C@H]3C(=O)C=C4[C@@]5(C)C=C(C#N)C(=O)C(C)(C)[C@@H]5CC[C@@]4(C)[C@]3(C)CC[C@@]2(NC(=O)C(C)(F)F)CC[C@H]1C [Compound T17] | 15 ± 5.8 | 5.83 ± 1.26 | 22.9 ± 2.6 | 1.92 ± 0.74 |  | 
8 | CC(=O)N[C@]12CC[C@@H](C)[C@H](C)[C@H]1[C@H]1C(=O)C=C3[C@@]4(C)C=C(C#N)C(=O)C(C)(C)[C@@H]4CC[C@@]3(C)[C@]1(C)CC2 [Compound T18] | 23 ± 4.1 | 13.7 ± 5.76 | 27.3 ± 5.8 | 1.97 ± 0.24 |  | 
9 | C[C@@H]1[C@H]2[C@H]3C(=O)C=C4[C@@]5(C)C=C(C#N)C(=O)C(C)(C)[C@@H]5CC[C@@]4(C)[C@]3(C)CC[C@@]2(CNC(=O)C2CC2)CC[C@H]1C [Compound T19] | 2.33 ± 1.47 | 0.74 ± 0.14 | 2.27 ± 0.52 | 0.224 ± 0.072 | 2.33 ± 1.47 | 2.27 ± 0.52
10 | C[C@@H]1[C@H]2[C@H]3C(=O)C=C4[C@@]5(C)C=C(C#N)C(=O)C(C)(C)[C@@H]5CC[C@@]4(C)[C@]3(C)CC[C@@]2(CNC(=O)OC(C)(C)C)CC[C@H]1C [Compound T20] | 12.9 ± 4.6 | 3.72 ± 0.60 | 21.5 ± 4.6 | 1.83 ± 0.41 | 12.9 ± 4.6 | 21.5 ± 4.6
11 | C[C@@H]1[C@H]2[C@H]3C(=O)C=C4[C@@]5(C)C=C(C#N)C(=O)C(C)(C)[C@@H]5CC[C@@]4(C)[C@]3(C)CC[C@@]2(CN)CC[C@H]1C [Compound T21] | 26 ± 7.6 | 10.9 ± 1.6 | 14.7 ± 1.3 | 1.27 ± 0.045 | 26 ± 7.6 | 14.7 ± 1.3
12 | CC(=O)NC[C@]12CC[C@@H](C)[C@H](C)[C@H]1[C@H]1C(=O)C=C3[C@@]4(C)C=C(C#N)C(=O)C(C)(C)[C@@H]4CC[C@@]3(C)[C@]1(C)CC2 [Compound T22] | 3.58 ± 2.16 | 0.94 ± 0.14 | 2.99 ± 1.62 | 0.244 ± 0.080 |  | 
13 | CCC(=O)NC[C@]12CC[C@@H](C)[C@H](C)[C@H]1[C@H]1C(=O)C=C3[C@@]4(C)C=C(C#N)C(=O)C(C)(C)[C@@H]4CC[C@@]3(C)[C@]1(C)CC2 [Compound T23] | 3.07 ± 1.43 | 0.80 ± 0.13 | 1.89 ± 0.91 | 0.166 ± 0.071 | 3.07 ± 1.43 | 1.89 ± 0.91
14 | [2H]C([2H])([2H])C(=O)NC[C@]12CC[C@@H](C)[C@H](C)[C@H]1[C@H]1C(=O)C=C3[C@@]4(C)C=C(C#N)C(=O)C(C)(C)[C@@H]4CC[C@@]3(C)[C@]1(C)CC2 [Compound T24] | 2.87 ± 1.67 | 0.967 ± 0.21 | 1.49 ± 0.31 | 0.126 ± 0.026 | 2.87 ± 1.67 | 1.49 ± 0.31
15 | C[C@@H]1[C@H]2[C@H]3C(=O)C=C4[C@@]5(C)C=C(C#N)C(=O)C(C)(C)[C@@H]5CC[C@@]4(C)[C@]3(C)CC[C@@]2(CNC(=O)C2CCC2)CC[C@H]1C [Compound T25] | 5.11 ± 1.69 | 1.49 ± 0.35 | 2.88 ± 0.13 | 0.259 ± 0.036 |  | 
